This passage reports RIPK3 dimerization-induced necroptosis, RIPK3 kinase activity and EC50 results from publication PMC6591251, “Discovery of potent necroptosis inhibitors targeting RIPK1 kinase activity for the treatment of inflammatory disorder and cancer metastasis” (Cell Death & Disease, 2019).

Read-outs that look alike come from different tables or passages of the source.

Test [1] relates to NIH3T3-RIPK3 cells. The test is described as follows: RIPK3 dimerization-induced necroptosis (AP20187). It is filed as cell-based, mouse. The conditions noted are these: AP20187 100 nM, 24 h. On the procedure: Recombinant proteins were incubated with PK6 and PK68 as indicated. […] NIH3T3-RIPK3 cells were pretreated with indicated compounds for 1 h and subsequently treated with T (40 ng/ml)/S (100 nM)/Z (20 μM) or AP20187 (100 nM) for 24 h. Cell viability was determined by measuring ATP levels. e PK6 and PK68 have no effect on MLKL dimerization-induced cell death in HeLa-MLKL (1–190) cells that stably express MLKL (1–190aa) fused to DmrB. HeLa-MLKL (1–190) cells were pretreated with indicated compounds for 1 h and subsequently treated with AP20187 (100 nM) for 24 h. Cell viability was determined by measuring ATP levels.
Further, we evaluated the selectivity of PK68 against a panel of 369 kinases provided by Reaction Biology (at 1000 nM). […] In addition, we followed on some of the active “hits” from the kinome scan. PK68 was tested against TNIK and TRKA by a reputable CRO company. […] RIPK1 is known to mediate NF-κB activation independently of its kinase activity. […] It has been shown that homodimerization of RIPK3 or MLKL induced by the dimerizer leads to necroptosis bypassing the upstream signals[10],[37]. […] This dimerized RIPK3-induced necroptosis was blocked by RIPK3 inhibitor GSK873 but was not blocked by the RIPK1 inhibitor necrostatin-1. […] (Fig. 4e).
(§1) The cell viability was analyzed by using the CellTiter-Glo Luminescent Cell Viability Assay kit following the manufacturer’s instructions (Promega). Luminescence was measured with SpectraMax i3x (Molecular Devices).

The target of test [2] is T1, RIPK3 (Homo sapiens, UniProt Q9Y572).
T1 construct: purchased Reaction Biology Corporation
The test is described as follows: In vitro kinase activity assay (ADP-Glo). The format is biochemical. Particulars: even at a 1000 nM concentration. As to the method: Having shown that PK6 and PK68 can inhibit activation of both RIPK1 and RIPK3 during TNF-mediated necroptosis, we sought to determine if PK6 and PK68 can directly target RIPK1 or and RIPK3 by performing in vitro kinase assays. Both PK6 and PK68 were able to block the kinase activities of both human RIPK1 and mouse RIPK1 in vitro (Fig. 4a and Supplementary Fig. 19).
Recombinant proteins were incubated with PK6 and PK68 as indicated. […] NIH3T3-RIPK3 cells were pretreated with indicated compounds for 1 h and subsequently treated with T (40 ng/ml)/S (100 nM)/Z (20 μM) or AP20187 (100 nM) for 24 h. Cell viability was determined by measuring ATP levels. e PK6 and PK68 have no effect on MLKL dimerization-induced cell death in HeLa-MLKL (1–190) cells that stably express MLKL (1–190aa) fused to DmrB. HeLa-MLKL (1–190) cells were pretreated with indicated compounds for 1 h and subsequently treated with AP20187 (100 nM) for 24 h. Cell viability was determined by measuring ATP levels. […]
The recombinant RIPK1 or RIPK3 protein was incubated with DMSO or the indicated compound for 15 min in the assay buffer (25 mM HEPES pH 7.2, 20 mM MgCl2, 12.5 mM MnCl2, 12.5 mM β-glycerol phosphate, 5 mM EGTA, 2 mM EDTA, and 2 mM DTT). […] The luminescence was measured to calculate the kinase activity after the addition of the ADP-Glo Kinase Assay kit following the manufacturer’s instructions (Promega).
Background: ADP-Glo turns the ADP formed in a reaction into a luminescent signal.

For test [3], the system named is HT-29 cells. The test is described as follows: TNF-induced necroptosis (TNFα/Smac mimetic/z-VAD), cell viability by ATP levels. It is filed as cell-based, human. On the procedure:
Necroptosis is tightly regulated by RIP kinases including RIPK1 and RIPK3. To develop new necroptosis inhibitors, we screened a small-molecule library of around 240 potential kinase inhibitors that were designed with novel structures to affect the ATP-binding pocket of protein kinases. Human colon cancer HT-29 cells were treated with these compounds for […], followed by treatment with necroptotic stimuli (TNFα, Smac mimetic, and z-VAD) that are known to activate TNF-mediated necroptosis. After 48 h, cell viability was analyzed by monitoring ATP levels.
Fig. 1 PK6 efficiently blocks TNF-α induced necroptosis in both human and mouse cells. a HT-29 cells cultured in 96-well plates were pretreated with the indicated compounds (10 μM) from a library consisting of ~240 compounds that we designed with novel structures for 1 h and subsequently treated with 40 ng/ml TNF-α (T), 100 nM Smac mimetic (S), and the caspase inhibitor 20 μM z-VAD(Z) for 48 h. Cell viability was assessed by measuring ATP levels. Data are represented as the mean ± standard deviation of duplicates. b Chemical structure of PK6. c Dose response curve and EC50 ± SD value for PK6 in TNF-α induced necroptosis in HT-29 cells. Cells were pretreated with indicated concentrations of PK6 for 1 h prior to the treatment with T (40 ng/ml), S (100 nM), and Z (20 μM) for 48 h. Cell viability was assessed by measuring ATP levels. d U937 cells were pretreated with indicated concentrations of PK6 for 1 h followed by the treatment with T (40 ng/ml), S (100 nM), and Z (20 μM) for 24 h. e MEF cells were pretreated with indicated concentrations of PK6 for 1 h followed by the treatment with T (40 ng/ml), S (100 nM), and Z (20 μM) for 24 h. f L929 cells were pretreated with indicated concentrations of PK6 for 1 h prior to the treatment with S (100 nM) and Z (20 μM) for 24 h.
Fig. 2 Chemical optimization of PK6 leads to improvements in anti-necroptotic activity. a, b The effects of the indicated compounds on cell viability were examined in HT-29 cells (a) and L929 cells (b). HT-29 cells were treated as indicate for 48 h and L929 cells for 24 h. Cell viability was assessed by measuring ATP levels. Data are represented as the mean ± standard deviation of triplicates. c Structure and EC50 ± SD value of each compound are shown in the table. EC50 values are the average of at least two independent determinations. d Lead optimization of PK6 TEXT PRINTED IN THE PICTURE: (c) PK6: EC50(nM) HT-29: 1200±53; EC50(nM) L929: 760±26 | (c) PK67: EC50(nM) HT-29: 250±6.3; EC50(nM) L929: 130±6.8 | (c) PK81: EC50(nM) HT-29: 120±7.6; EC50(nM) L929: 20±0.98 | (c) PK84: EC50(nM) HT-29: 97±6.7; EC50(nM) L929: 45±2.1 | (c) PK93: EC50(nM) HT-29: 130±36; EC50(nM) L929: 30±7.4 | (c) PK86: EC50(nM) HT-29: 73±3.9; EC50(nM) L929: 15±1.0 | (c) PK68: EC50(nM) HT-29: 23±1.4; EC50(nM) L929: 13±0.85
as §1

T1 sequence (Q9Y572 whole entry): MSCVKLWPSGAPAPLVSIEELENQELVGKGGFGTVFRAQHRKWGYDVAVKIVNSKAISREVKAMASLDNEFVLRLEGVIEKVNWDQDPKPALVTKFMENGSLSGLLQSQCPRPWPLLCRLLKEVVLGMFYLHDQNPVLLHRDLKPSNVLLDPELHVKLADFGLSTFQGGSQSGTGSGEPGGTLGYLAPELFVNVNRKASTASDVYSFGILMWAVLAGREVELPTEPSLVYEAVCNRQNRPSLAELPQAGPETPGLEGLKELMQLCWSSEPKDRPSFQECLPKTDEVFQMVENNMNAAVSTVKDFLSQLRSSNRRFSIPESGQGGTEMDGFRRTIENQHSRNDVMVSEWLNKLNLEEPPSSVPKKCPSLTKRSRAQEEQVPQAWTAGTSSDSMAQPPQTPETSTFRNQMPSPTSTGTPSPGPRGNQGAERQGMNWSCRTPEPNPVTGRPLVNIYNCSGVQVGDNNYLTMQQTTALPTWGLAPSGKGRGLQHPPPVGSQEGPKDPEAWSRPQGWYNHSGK

`CC(=O)Nc1nc2ccc(-c3cnc(Cl)c(NC(=O)Cc4ccccc4)c3)cc2s1` [PK6, N-(5-(2-acetamidobenzo[d]thiazol-6-yl)-2-chloropyridin-3-yl)-2-phenylacetamide]: the RIPK3 dimerization-induced necroptosis result in test [1] was “neither PK6 nor PK68 blocked”. Further, the RIPK3 kinase activity entry in test [2] is “neither PK6 nor PK68 affected RIPK3 kinase activity”. Also, in test [3] (Homo sapiens, HT-29, 48 h, T 40 ng/ml, S 100 nM, Z 20 μM, 48 h, read-out: EC50, TNF-induced necroptosis), the EC50 is around 1200 nM.
Consider `CC(=O)Nc1nc2ccc(-c3cnc(C)c(NC(=O)OC4CCCCC4)c3)cc2s1` [PK68, cyclohexyl (5-(2-acetamidobenzo[d]thiazol-6-yl)-2-methylpyridin-3-yl)carbamate], for which, in test [1], the RIPK3 dimerization-induced necroptosis result is reported as “neither PK6 nor PK68 blocked”. In test [2], the RIPK3 kinase activity entry is given as “neither PK6 nor PK68 affected RIPK3 kinase activity”. In addition, the 50% effective concentration (EC50) in test [3] (Homo sapiens, HT-29, 48 h, T/S/Z 48 h, read-out: EC50(nM) HT-29) was 23 nM; in test [3] (T/S/Z 48 h, read-out: EC50(nM) HT-29), around 20 nM.

The term EC50 denotes the concentration at which the effect is half-maximal.
